Test results: US7781191B2, “Treatment of biomass to obtain a target chemical” (E. I. du Pont de Nemours and Company, priority 2005, dated 2010)

System: Z. mobilis strain 8b
Conditions: fermentation medium pH 6.0, 30° C., 150 rpm; supplemented with 6 g/L acetamide or 7.2 g/L acetic acid vs unsupplemented control; FIG. 1
Description: Fermentation medium was composed of 10 g/L yeast extract, 2 g/L KH2PO4, 70 g/L glucose, 40 g/L xylose and 0.1 M MES buffer.

Compound | final density / cell yield (as measured by dry cell mass) of Z. mobilis | growth rate of Z. mobilis
CC(N)=O [acetamide] | no influence | no influence
CC(=O)O [acetic acid] |  | reduced growth rate
